# Data taken from patent US20260083865A1, “PROSTATE SPECIFIC MEMBRANE ANTIGEN (PSMA) LIGANDS AND USE THEREOF” (priority 2022, published 2026).
# Numbered stars: 1 amine (or outer) side, 2 acyl side, 3 side chain; on linkers, the order of the positions; unused ones are H or OH. Bridge positions count the residues as written; N and C are the ends. Square brackets hold non-standard residues; d marks the D form. Side chains are listed from the residue outwards. Peptide text beside a SMILES is read from it. * marks the point of attachment. X3 = O=C(O)CN1CCN(CC(=O)O)CCN(CC(=O)NCCCOCCOCCOCCCN*)CCN(CC(=O)O)CC1; DOTA = O=C(O)CN1CCN(CC(=O)O)CCN(CC(=O)*)CCN(CC(=O)O)CC1; Phe(4-Cl) = N[C@@H](Cc1ccc(Cl)cc1)C(=O)O; Arg(Me) = CNC(=N)NCCC[C@H](N)C(=O)O; X4 = O=C(CN1CCC(N[*:1])CC1)[*:2]; X1 = O=C(CC1CCN([*:1])CC1)[*:2]; Lys(Me) = CNCCCC[C@H](N)C(=O)O; Suc = O=C(CCC(=O)[*:2])[*:1]; Tle = CC(C)(C)[C@H](N)C(=O)O; Aib = CC(C)(N)C(=O)O; βAla = NCCC(=O)O
# Legend:
# [1] = target: T1, PSMA-expressing C4-2 cells (Homo sapiens, UniProt Q04609); assay: FACS binding assay (competition with 50 nM PSM-0183); conditions: pIC50 category of FACS binding, C4-2 cells; read-out: pIC50 [C4-2] CAT (converted)
# T1 construct: PSMA-expressing C4-2 cells (ATCC, Cat. No. CRL-3314) were cultured in RPMI-1640; host or cells: C4-2 cells
# T1 sequence (Q04609 whole entry): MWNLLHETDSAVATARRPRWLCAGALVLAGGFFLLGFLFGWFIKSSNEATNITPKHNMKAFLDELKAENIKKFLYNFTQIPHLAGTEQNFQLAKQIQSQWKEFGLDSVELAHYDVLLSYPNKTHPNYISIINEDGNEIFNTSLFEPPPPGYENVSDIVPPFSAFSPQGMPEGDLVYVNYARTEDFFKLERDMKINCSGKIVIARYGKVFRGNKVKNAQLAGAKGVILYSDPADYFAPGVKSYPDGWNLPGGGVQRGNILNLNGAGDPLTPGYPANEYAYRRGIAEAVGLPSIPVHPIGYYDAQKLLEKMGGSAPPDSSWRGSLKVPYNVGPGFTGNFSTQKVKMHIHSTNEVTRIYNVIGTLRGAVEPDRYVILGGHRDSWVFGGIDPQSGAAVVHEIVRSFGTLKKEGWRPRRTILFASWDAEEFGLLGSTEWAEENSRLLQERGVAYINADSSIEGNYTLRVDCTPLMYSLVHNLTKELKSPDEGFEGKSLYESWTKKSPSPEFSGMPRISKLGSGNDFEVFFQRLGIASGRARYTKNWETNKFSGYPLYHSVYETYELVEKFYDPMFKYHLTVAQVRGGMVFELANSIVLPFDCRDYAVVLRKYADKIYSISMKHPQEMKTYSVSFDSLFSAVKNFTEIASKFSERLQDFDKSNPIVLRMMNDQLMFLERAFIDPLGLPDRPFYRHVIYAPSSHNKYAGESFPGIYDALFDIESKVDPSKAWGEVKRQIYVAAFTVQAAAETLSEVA
# In short: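 Competition format: fluorescent tracer PSM-0183 (50 nM) displaced from PSMA on C4-2 cells by a test compound titration over 1 h at 4 °C. Bound tracer was quantified as flow-cytometric AF488 median fluorescence after washing. Four-parameter logistic fits of MFI data gave IC50 and pIC50.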
# [2] = target: T2, Fc-fusion protein of human PSMA (hPSMA-Fc) (Homo sapiens, UniProt Q04609); assay: Surface plasmon resonance assay (Biacore T200, single cycle kinetic); type: binding; conditions: pKD category for PSMA SPR activity assay, hPSMA-Fc, 25° C.; read-out: pKD CAT (converted)
# T2 construct: purchased Acro Biosystems PSA-H5264
# T2 sequence (Q04609 44-750 limits assumed): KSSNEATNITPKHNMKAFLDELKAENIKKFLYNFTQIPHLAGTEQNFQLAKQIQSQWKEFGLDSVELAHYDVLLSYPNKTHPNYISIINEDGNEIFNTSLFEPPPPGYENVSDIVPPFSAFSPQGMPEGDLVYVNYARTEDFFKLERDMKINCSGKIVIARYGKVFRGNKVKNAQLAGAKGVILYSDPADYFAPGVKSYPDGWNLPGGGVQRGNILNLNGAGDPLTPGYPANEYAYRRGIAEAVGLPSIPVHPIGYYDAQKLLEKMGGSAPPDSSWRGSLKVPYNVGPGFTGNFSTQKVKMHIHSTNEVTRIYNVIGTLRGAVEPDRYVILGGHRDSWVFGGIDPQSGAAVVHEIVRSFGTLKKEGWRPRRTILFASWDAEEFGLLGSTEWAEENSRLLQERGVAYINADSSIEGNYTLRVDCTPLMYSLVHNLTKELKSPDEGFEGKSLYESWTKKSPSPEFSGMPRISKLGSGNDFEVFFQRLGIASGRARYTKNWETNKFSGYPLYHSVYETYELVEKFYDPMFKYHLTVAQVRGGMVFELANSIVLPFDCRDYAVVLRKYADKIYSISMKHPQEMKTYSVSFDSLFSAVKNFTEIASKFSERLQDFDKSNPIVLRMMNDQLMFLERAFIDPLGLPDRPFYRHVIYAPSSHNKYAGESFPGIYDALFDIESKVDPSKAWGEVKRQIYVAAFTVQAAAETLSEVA
# In short: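 KD, expressed as pKD, came from 1:1 Langmuir fits of reference- and buffer-blank-subtracted SPR data. The runs were single-cycle kinetics at 25° C in HBST/0.1% DMSO over human PSMA-Fc, captured to ~1000 RU on a peptide-coated CM5 surface and regenerated with 10 mM glycine pH 1.5.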
Compound,IC50 [1],Kd [2]
"CCCC[C@H](NC(=O)[C@@H]1CSSC[C@H](NC(=O)[C@H](Cc2ccccc2)NC(=O)[C@@H](C)NC(=O)[C@@H](NC(C)=O)[C@@H](C)O)C(=O)N[C@@H](CCCCN)C(=O)N[C@@H](CCCNC(=N)N)C(=O)N[C@@H](C)C(=O)N[C@@H](CC(N)=O)C(=O)N1)C(=O)N[C@H](C(=O)N[C@@H](CC(=O)O)C(N)=O)[C@@H](C)O [PSM-0537, Ac-Thr-ala-Phe-[Cys-Lys-Arg-Ala-Asn-Cys]-Nlc-Thr-Asp-NH2]",1260 to 3160 nM,> 501 nM
"CNCCCC[C@@H]1NC(=O)[C@@H](NC(=O)[C@H](Cc2ccc(Cl)cc2)NC(=O)C(C)(C)NC(=O)[C@@H](NC(=O)CC2CCN(C(=O)CN3CCN(CC(=O)O)CCN(CC(=O)O)CCN(CC(=O)O)CC3)CC2)C(C)(C)C)CSSC[C@@H](C(=O)N[C@H](C(=O)N[C@H](C(N)=O)[C@@H](C)O)C(C)(C)C)NC(=O)[C@H](CC(N)=O)NC(=O)C(C)(C)NC(=O)[C@H](CCCNC(=N)NC)NC1=O [PSM-0538, DOTA-Cmp-Tle-Aib-Pcf-[Cys-Lys (Mc)-Arg (Mc)-Aib-Asn-Cys]-Tle-Thr-NH2] ({DOTA}-[X1][Tle][Aib][Phe(4-Cl)]C[Lys(Me)][Arg(Me)][Aib]NC[Tle]T-NH2; disulfide 5-10)",200 to 1260 nM,126 to 501 nM
"C[C@@H](O)[C@H](NC(=O)CN1CCN(CC(=O)O)CCN(CC(=O)O)CCN(CC(=O)O)CC1)C(=O)NC(C)(C)C(=O)N[C@@H](Cc1ccccc1)C(=O)N[C@H]1CSSC[C@@H](C(=O)N[C@H](C(=O)NCCC(N)=O)C(C)(C)C)NC(=O)[C@H](CC(N)=O)NC(=O)C(C)(C)NC(=O)[C@H](CCCNC(=N)N)NC(=O)[C@H](CCCCN)NC1=O [PSM-0539, DOTA-Thr-Aib-Phe-[Cys-Lys-Arg-Aib-Asn-Cys]-Tle-Bal-NH2] ({DOTA}-T[Aib]FCKR[Aib]NC[Tle][βAla]-NH2; disulfide 4-9)",< 200 nM,12.6 to 126 nM
"CC(=O)N[C@H](C(=O)NC(C)(C)C(=O)N[C@@H](Cc1ccccc1)C(=O)N[C@H]1CSSC[C@@H](C(=O)N[C@H](C(=O)N[C@@H](CCC(N)=O)C(N)=O)C(C)(C)C)NC(=O)[C@H](CC(N)=O)NC(=O)C(C)(C)NC(=O)[C@H](CCCNC(=N)N)NC(=O)[C@H](CCCCN)NC1=O)[C@@H](C)O [PSM-0540, Ac-Thr-Aib-Phe-[Cys-Lys-Arg-Aib-Asn-Cys]-Tle-Gln-NH2] (Ac-T[Aib]FCKR[Aib]NC[Tle]Q-NH2; disulfide 4-9)",< 200 nM,< 12.6 nM
"CC(=O)N[C@H](C(=O)NC(C)(C)C(=O)N[C@@H](Cc1ccccc1)C(=O)N[C@H]1CSSC[C@@H](C(=O)N[C@H](C(=O)N[C@H](C(N)=O)[C@@H](C)O)C(C)(C)C)NC(=O)[C@H](Cc2ccccc2)NC(=O)C(C)(C)NC(=O)[C@H](CCCNC(=N)N)NC(=O)[C@H](CCCCN)NC1=O)[C@@H](C)O [PSM-0541, Ac-Thr-Aib-Phe-[Cys-Lys-Arg-Aib-Phe-Cys]-Tle-NH2] (Ac-T[Aib]FCKR[Aib]FC[Tle]T-NH2; disulfide 4-9)",< 200 nM,< 12.6 nM
"CC(=O)N[C@H](C(=O)NC(C)(C)C(=O)N[C@@H](Cc1ccccc1)C(=O)N[C@H]1CSSC[C@@H](C(=O)N[C@H](C(=O)N[C@H](C(=O)N[C@@H](CC(=O)O)C(N)=O)[C@@H](C)O)C(C)(C)C)NC(=O)[C@H](CC(N)=O)NC(=O)[C@H](CCCCNC(=O)CCC(=O)NCCCOCCOCCOCCCNC(=O)CN2CCN(CC(=O)O)CCN(CC(=O)O)CCN(CC(=O)O)CC2)NC(=O)[C@H](CCCNC(=N)N)NC(=O)[C@H](CCCCN)NC1=O)[C@@H](C)O [PSM-0542, Ac-Thr-Aib-Phe-[Cys-Lys-Arg-Lys(DOTA-Ttds)-Asn-Cys]-Tle-Thr-Asp-NH2] (Ac-T[Aib]FCKRK([Suc-X3])NC[Tle]TD-NH2; disulfide 4-9)",< 200 nM,< 12.6 nM
"C[C@@H](O)[C@H](NC(=O)[C@@H](NC(=O)[C@@H]1CSSC[C@H](NC(=O)[C@H](Cc2ccccc2)NC(=O)C(C)(C)NC(=O)[C@@H](NC(=O)CN2CCC(NC(=O)CN3CCN(CC(=O)O)CCN(CC(=O)O)CCN(CC(=O)O)CC3)CC2)[C@@H](C)O)C(=O)N[C@@H](CCCCN)C(=O)N[C@@H](CCCNC(=N)N)C(=O)NC(C)(C)C(=O)N[C@@H](CC(N)=O)C(=O)N1)C(C)(C)C)C(N)=O [PSM-0543, DOTA-APAc-Thr-Aib-Phe-[Cys-Lys-Arg-Aib-Asn-Cys]-Tle-Thr-NH2] ({DOTA}-[X4]T[Aib]FCKR[Aib]NC[Tle]T-NH2; disulfide 5-10)",< 200 nM,< 12.6 nM
